# Results as given in US20230033195A1, “METHODS AND COMPOSITIONS FOR IMPROVING COGNITIVE FUNCTION” (THE JOHNS HOPKINS UNIVERSITY, priority 2011, published 2023).
# Tested on: Age-Impaired (AI) Long-Evans rats
# Test: Morris Water Maze (MWM) retention trial, spatial memory retention
# Format: in vivo, rat
# Experimental: FIG. 2 depicts the effects of administering levetiracetam on the spatial memory retention of six aged-impaired rats (AI) in a Morris Water Maze (MWM) test. Three treatment conditions were employed: vehicle control, levetiracetam (5 mg/kg/day) and levetiracetam (10 mg/kg/day). The AI rats were trained for two consecutive days, with a one-time treatment prior to the training trials per day. 24 hours later, the AI rats were tested. The time the AI rats, 24 hours after treatment with the different conditions and two days of training, spent swimming in the target quadrant or the target annulus in a memory retention trial is used as a measure of spatial memory retention. The target quadrant refers to the quadrant of the maze (which is a circular pool) where the escape platform is placed during the training trials. The target annulus refers to the exact location of the escape platform during the training trials.
# The MWM apparatus consists of a large, circular pool (diameter 1.83 m; height, 0.58 m) filled with water (27° C.) that is made opaque through the addition of non-toxic pigment or some other substance. In the typical "hidden platform" version of the test, rats are trained to find a camouflaged white escape platform (height, 34.5 cm) that is positioned in the center of one quadrant of the maze about 1.0 cm below the water surface. This platform can be retracted to the bottom of the tank or raised to its normal position from outside the maze during behavioral testing. The location of the platform remains constant from trial to trial. Because there are no local cues that mark the position of the platform, the rat's ability to locate it efficiently from any starting position at the perimeter of the pool depends on using information surrounding the maze. The maze is surrounded by black curtains to which white patterns are affixed to provide a configuration of spatial cues. A second platform (height 37.5 cm), with its surface painted black is elevated 2 cm above the water surface during cue training to control for factors unrelated to cognition. The behavior of a rat in the pool is recorded by a camera that is suspended 2.5 m above the center of the pool. The camera is connected to a video tracking system (HVS Image Advanced Tracker VP200) and a PC computer running HVS software developed by Richard Baker of HVS Image, Hampton, UK.
# The MWM protocol is optimized for sensitivity to the effects of aging on cognition and for measures of reliable individual differences within the aged population of out-bred Long-Evans rats (Gallagher et al. Behav. Neurosci. 107:618-626, (1993)). […] At the completion of the protocol using the hidden platform, rats are assessed for cue learning using the visible platform. […]
smiles,measurement,setting,value
"CC[C@@H](C(N)=O)N1CCCC1=O [levetiracetam, (2S)-2-(2-oxopyrrolidin-1-yl) butanamide]",performance (time in target quadrant) compared to vehicle,"5 mg/kg/day i.p., retention trial 24 h after training",did not significantly improve
same,time spent in the target annulus,"10 mg/kg/day i.p., retention trial",effectivness of the 10 mg/kg/day levetiracetam treatment was also seen
same,memory as compared to vehicle-treated controls (time in target quadrant),"10 mg/kg/day i.p., retention trial 24 h after training",significantly improved memory
same,"time spent in the target quadrant, percentage of total swimming time","10 mg/kg/day i.p., retention trial 24 h after two training days",approximately 35%
